Test results taken from patent publication US4093626A, “β-Lactam antibiotics” (Beecham Group Limited, priority 1976, dated 1978).

Key:
[1] = test system: Staph. aureus Russell; experiment: Antibacterial activity (M.I.C.) against Staphylococcus aureus Russell; type: cell-based; details: compound alone
Description: (§1) Antibacterial activity and antibacterial synergy with ampicillin against Staphylococcus aureus Russell

[2] = test system: Staph. aureus Russell; experiment: Antibacterial synergy with ampicillin against Staphylococcus aureus Russell (M.I.C. of ampicillin in presence of compound); type: cell-based; details: inhibitor conc. 20 μg/ml
Description: as §1

[3] = Acute toxicity in mice; type: in vivo
Description: The compound (mixture of 2 isomers) from Example 6.2 was tested for acute toxicity in mice as described below.
Mice: CDI, female, 18 - 22 gm. 5 mice per group
The compound was injected in aqueous dimethylformamide (≤15% DMF) at 0.4 ml/20 g for the 2000 mg./Kg. dosage and at 0.2 ml/20 g. for the other dosages.

[4] = target: β-lactamase enzyme produced by Staphylococcus aureus Russell (Staphylococcus aureus, UniProt P00807); experiment: Inhibition of the β-lactamase from Staphylococcus aureus Russell (I50); type: biochemical; details: β-lactamase from Staph. aureus Russell
Description: Inhibition of the β-lactamase from Staphylococcus aureus Russell
I50 values were determined using the process described in Belgium Pat. No. 827,926.

Sequence of β-lactamase enzyme produced by Staphylococcus aureus Russell (P00807 25-281): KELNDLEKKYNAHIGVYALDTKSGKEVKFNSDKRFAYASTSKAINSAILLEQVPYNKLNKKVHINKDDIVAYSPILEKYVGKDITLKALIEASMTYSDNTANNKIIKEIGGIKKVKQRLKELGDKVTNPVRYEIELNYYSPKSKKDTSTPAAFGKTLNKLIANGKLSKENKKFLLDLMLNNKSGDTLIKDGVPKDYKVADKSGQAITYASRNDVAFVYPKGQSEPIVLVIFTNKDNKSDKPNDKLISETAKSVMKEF

With “(3RS, 5RS)- and (3RS, 5SR)-3-(2-Bromoethyl)-4-oxa-1-azabicyclo[3.2.0]heptan-7-one [Example 6.2]” the M.I.C. [1] was 500 µg/mL, the “M.I.C. Ampicillin” value [2] was 0.4 µg/mL and the “Number of mice alive” value ([3]; 250 mg./Kg. subcutaneous, Day 2) was 5/5. The “Number of mice alive” value ([3]; 250 mg./Kg. subcutaneous, Day 3) was 5/5, the “Number of mice alive” value ([3]; 250 mg./Kg. subcutaneous, Days 0 and 1) was 5/5 and the “Number of mice alive” value ([3]; 250 mg./Kg. subcutaneous, Days 4 to 7) was 5/5. For the same molecule, the “Number of mice alive” value ([3]; 500 mg./Kg. subcutaneous, Day 2) was 5/5, the “Number of mice alive” value ([3]; 500 mg./Kg. subcutaneous, Day 3) was 5/5 and the “Number of mice alive” value ([3]; 500 mg./Kg. subcutaneous, Days 0 and 1) was 5/5. For the same molecule, the “Number of mice alive” value ([3]; 500 mg./Kg. subcutaneous, Days 4 to 7) was 5/5, the “Number of mice alive” value ([3]; 1000 mg./Kg. subcutaneous, Day 2) was 5/5 and the “Number of mice alive” value ([3]; 1000 mg./Kg. subcutaneous, Day 3) was 5/5. For the same molecule, the “Number of mice alive” value ([3]; 1000 mg./Kg. subcutaneous, Days 0 and 1) was 5/5, the “Number of mice alive” value ([3]; 1000 mg./Kg. subcutaneous, Days 4 to 7) was 5/5 and the “Number of mice alive” value ([3]; 2000 mg./Kg. subcutaneous, Day 2) was 3/5. For the same molecule, the “Number of mice alive” value ([3]; 2000 mg./Kg. subcutaneous, Day 3) was 2/5, the “Number of mice alive” value ([3]; 2000 mg./Kg. subcutaneous, Days 0 and 1) was 5/5 and the “Number of mice alive” value ([3]; 2000 mg./Kg. subcutaneous, Days 4 to 7) was 2/5. For the same molecule, the “Survival and weight gain of remaining mice” value ([3]; 2000 mg./Kg. subcutaneous, end of observation period (7 days)) was “the other two remained alive and had gained weight”, the Deaths ([3]; 2000 mg./Kg. subcutaneous, within 3 days) was “three out of the five mice were dead” and the “Survival and weight gain over the observation period” value ([3]; dosages up to 100 mg./Kg. subcutaneous, 7 days) was “all mice remained alive and gained in weight”.
For `O=C(OC[C@H]1CN2C(=O)C[C@@H]2O1)c1ccc([N+](=O)[O-])cc1` (racemic) [Example 14, (3RS, 5SR)-3-p-Nitrobenzoyloxymethyl-4-oxa-1-azabicyclo[3.2.0]heptan-7-one], the IC50 [4] was 15.1 µM.
With `O=C1C[C@@H]2O[C@@H](COc3ccc([N+](=O)[O-])cc3)CN12` (racemic) [Example 15, (3RS, 5SR)-3-p-Nitrophenoxymethyl-4-oxa-1-azabicyclo[3.2.0]heptan-7-one] the IC50 [4] was 16.7 µM.
With `O=C1C[C@@H]2O[C@@H](CBr)CN12` (racemic) [Example 2.2, (3RS, 5SR)-3-Bromomethyl-4-oxa-1-azabicyclo[3.2.0]heptan-7-one] the IC50 [4] was 14.6 µM.
`O=C1C[C@@H]2O[C@@H](CSc3ccccc3)CN12` (racemic) [Example 7, (3RS, 5SR)-3-Phenylthiomethyl-4-oxa-1-azabicyclo[3.2.0]heptan-7-one] showed an IC50 [4] of 10.2 µM.
Molecule `O=C1C[C@@H]2O[C@@H](C[S+]([O-])c3ccc([N+](=O)[O-])cc3)CN12` (single isomer, unassigned) [Example 20 (isomer I), (3RS, 5SR)-3-p-Nitrophenylsulphinylmethyl-4-oxa-1-azabicyclo[3.2.0] heptan-7-one] has an IC50 [4] of 2.7 µM.
In the case of `O=C1C[C@@H]2O[C@@H](CS(=O)(=O)c3ccc([N+](=O)[O-])cc3)CN12` (relative stereo) [Example 0-20], the IC50 [4] is reported as 5.44 µM.
`O=C(Nc1ccccc1)OC[C@H]1CN2C(=O)C[C@@H]2O1` (relative stereo) [Example 22, (3RS, 5SR)-3-(N-Phenylcarbamoyloxymethyl)-4-oxa-1-azabicyclo[3.2.0]heptan-7-one] showed an IC50 [4] of 9.15 µM.
